Laboratory results: US20220009920A1 (GB005, Inc., priority 2020, published 2022)
Where two headings read alike, the source gives them in different places.

Key:
BTK in RAMOS B cells = assay: Assay to determine BTK activity in RAMOS B cells (anti-IgM, FLIPR Calcium 6); format: cell-based; settings: anti-IgM EC80, calcium readout
Procedure: On the day before assay, Ramos B cells were plated in plating medium (RPMI1640 medium containing 1% FBS and 1× pencillin-streptomycin). On the day of the assay, 2× dye solution was prepared following the manual of the FLIRP Calcium 6 Assay Kit: Dilute the dye with assay buffer (20 mM HEPES in IX HBSS, pH7.4); Add probenecid to the final concentration of 5 mM; vortex vigorously for 1-2 minutes. Cells were collected by centrifuging, and the pellet was re-suspended in plating medium. After counting, cells were re-suspended at a density of 3×10^6/ml in plating medium. Equal volume of 2× dye solution was added to the cell suspension. Cells were then plated at 20 μl/well into a 384-well poly-D-lysine coated plate. Plate was centrifuged at 1000 rpm for 3 minutes and then incubated at 37° C. for 2 hours followed by an additional 15-minute incubation at 25° C. Compounds were prepared at 3× concentration in dilution buffer (20 mM HEPES and 0.1% BSA in 1×HBSS, pH 7.4). Serially diluted compound was transferred from source plate to a 384-well compound plate by using an Echo 550 (Labcyte). 20 μl/well compound dilution buffer was added to the compound plate and mixed on plate shaker for 2 mins. 4× EC80 of Anti-IgM (Jackson ImmunoResearch) was prepared in dilution buffer and 20 μl/well was added to a new 384-well compound plate. After 60 mins of incubation at 25° C. in the dark; cell plate, compound plate containing 4×EC80 of anti-IgM and FLIPR tips were placed into FLIPR (Molecular Devices). 10 ul/well of 4×EC80 anti-IgM was transferred to the cell plate by FLIPR. Plates were read for 160 sec with 1 sec interval.

[1] = Plasma and total brain concentrations at 1 h post single oral administration to female C57BL/6 mice; format: in vivo; settings: mouse, 10 mg/kg oral gavage; for Kp at 1 h: brain/plasma, read-out: brain to plasma ratio
Procedure: The appropriate amount of test article was dissolved 10% dimethylacetamide (DMA)/90% (20% hydroxypropyl-β-cyclodextrin (HP-B-CD) w/v in water to obtain a final concentration of 1 mg/mL for oral dosing. Sonication, vortex, and homogenization was used as needed. Three female C57BL/6 mice aged 7-9 weeks (20-30 grams) were dosed by oral gavage 10 mg/kg solution of the test article.
Concentrations of test compounds in the plasma and brain samples (use plasma and brain homogenate standard curve for all samples appropriately) were analyzed using LC-MS/MS. Compounds having a brain-to-plasma ratio of greater than 0.2 were considered brain penetrant.

BTK = target: T1, BTK (Homo sapiens, UniProt Q06187); assay: Assay to determine activity against BTK; format: biochemical; settings: 1 mM ATP, 2 nM BTK, 90 minutes at room temperature
T1 construct: purchased Cama
Procedure: Solutions of compounds (test or control) in DMSO were prepared at the desired concentrations, and serially diluted to 11 concentrations by 3-fold dilution in 384pp-plate using TECAN EVO200. 20 nL of stock were transferred to 384 plate using Echo550. DMSO was used as vehicle control.
(BTK was obtained from Cama; FLPeptide2 was obtained from PerkinElmer and Ibrutinib was obtained from Selleck.) 5 μL of ATP solution were added to each well, followed by addition of 15 μL of BTK solution to initiate the reaction. (Note the final volume of each well was 20 μL containing MgCl2 (10 mM), Brij-35 (0.01%), DTT (2 mM), BSA (0.05%), EGTA (1 mM), HEPE (pH7.5) (50 mM), FLPeptide (1.5 uM), ATP (1 mM) and BTK (2 nM).
The plates were incubated at room temperature for 90 minutes and then stopping buffer added (75 μL, containing 0.5 M EDTA) to terminate the reaction. Samples from each well were analyzed using EZ reader. The % remaining activity was calculated using read conversion ratio (CR) according to the equation: […]
XLFit (equation 201) was used to calculate IC50's by floating both bottom and top.

[2] = plasma, read-out: Mean [plasma]

T1 sequence (Q06187 whole entry): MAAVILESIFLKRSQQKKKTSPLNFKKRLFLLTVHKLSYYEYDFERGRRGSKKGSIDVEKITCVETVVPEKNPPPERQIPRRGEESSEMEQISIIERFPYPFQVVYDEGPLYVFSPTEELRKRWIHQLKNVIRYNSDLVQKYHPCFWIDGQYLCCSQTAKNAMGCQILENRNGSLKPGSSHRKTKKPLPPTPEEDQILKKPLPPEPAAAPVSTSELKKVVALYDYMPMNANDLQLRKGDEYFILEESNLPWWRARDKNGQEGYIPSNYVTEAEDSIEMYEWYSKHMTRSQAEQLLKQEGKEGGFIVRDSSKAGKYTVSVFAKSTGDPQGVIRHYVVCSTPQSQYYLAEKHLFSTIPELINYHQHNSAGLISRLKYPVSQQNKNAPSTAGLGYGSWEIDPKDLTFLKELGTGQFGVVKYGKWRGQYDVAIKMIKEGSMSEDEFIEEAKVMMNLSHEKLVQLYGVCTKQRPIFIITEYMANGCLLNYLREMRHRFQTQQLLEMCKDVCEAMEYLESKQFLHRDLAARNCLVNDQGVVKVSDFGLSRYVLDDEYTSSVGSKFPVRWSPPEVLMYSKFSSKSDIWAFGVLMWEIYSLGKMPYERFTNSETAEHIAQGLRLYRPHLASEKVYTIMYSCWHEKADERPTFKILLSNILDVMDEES

## C=CC(=O)N1CCC=C(c2c(F)cc(C(N)=O)c3[nH]c4c(c23)CCCCC4)C1 [Compound 5-4, 1-(1-acryloyl-1,2,5,6-tetrahydropyridin-3-yl)-2-fluoro-5,6,7,8,9,10-hexahydrocyclohepta[b]indole-4-carboxamide]
BTK in RAMOS B cells; Homo sapiens, Ramos
  IC50: 10 to 100 nM
[1]; brain, read-out: Mean [brain]
  concentration at 1 h: 4 ng/g
[1]
  Kp at 1 h: 0.22
[1]; [2]
  concentration at 1 h: 18 ng/mL
BTK
  IC50: < 10 nM

## C=CC(=O)N1CCC[C@@H](c2cnc(C(N)=O)c3[nH]c4c(c23)CCCC4)C1 [Compound 2-4, (S)-4-(1-acryloylpiperidin-3-yl)-6,7,8,9-tetrahydro-5H-pyrido[3,4-b]indole-1-carboxamide]
BTK in RAMOS B cells; Homo sapiens, Ramos
  IC50: < 10 nM
[1]; brain, read-out: Mean [brain]
  concentration at 1 h: 39 ng/g
[1]
  Kp at 1 h: 0.24
[1]; [2]
  concentration at 1 h: 163 ng/mL
BTK
  IC50: < 10 nM

## C=CC(=O)N1CCC(CNc2ncnc(N)c2-c2ccc(Oc3ccccc3)cc2)CC1 [Evobrutinib, reference compound]
[1]; brain, read-out: Mean [brain]
  concentration at 1 h: 11 ng/g
[1]
  Kp at 1 h: 0.06
[1]; [2]
  concentration at 1 h: 177 ng/mL

## CC#CC(=O)N1CCC[C@H]1c1nc(-c2ccc(C(=O)Nc3ccccn3)cc2)c2c(N)nccn12 [Acalabrutinib, reference compound]
[1]; brain, read-out: Mean [brain]
  concentration at 1 h: 4 ng/g
[1]
  Kp at 1 h: 0.04
[1]; [2]
  concentration at 1 h: 120 ng/mL

## C=CC(=O)N[C@H]1C[C@H](F)CN(c2c(F)cc(C(N)=O)c3[nH]c4c(c23)CC2(CC4)CC2)C1 [Compound 7-22, 5-((3S,5S)-3-acrylamido-5-fluoropiperidin-1-yl)-6-fluoro-1,2,4,9-tetrahydrospiro[carbazole-3,1′-cyclopropane]-8-carboxamide]
BTK in RAMOS B cells; Homo sapiens, Ramos
  IC50: 10 to 100 nM
BTK
  IC50: 10 to 100 nM

## C=CC(=O)N1CCc2c(-c3c(F)cc(C(N)=O)c4[nH]c5c(c34)CC3(CC5)CC3)cccc2[C@@H]1C (atropisomer, axis not shown) [Compound 7-21, (R)-5-((S)-2-acryloyl-1-methyl-1,2,3,4-tetrahydroisoquinolin-5-yl)-6-fluoro-1,2,4,9-tetrahydrospiro[carbazole-3,1′-cyclopropane]-8-carboxamide]
BTK in RAMOS B cells; Homo sapiens, Ramos
  IC50: 10 to 100 nM
BTK
  IC50: < 10 nM

## C=CC(=O)N1CCc2c(cccc2-c2c(F)cc(C(N)=O)c3[nH]c4c(c23)CC2(CCOCC2)CC4)C1 [Compound 7-19, 5-(2-acryloyl-1,2,3,4-tetrahydroisoquinolin-5-yl)-6-fluoro-1,2,2′,3′,4,5′,6′,9-octahydrospiro[carbazole-3,4′-pyran]-8-carboxamide]
BTK in RAMOS B cells; Homo sapiens, Ramos
  IC50: ≥ 100 nM
BTK
  IC50: 10 to 100 nM

## C=CC(=O)N1CCCC(c2c(F)cc(C(N)=O)c3[nH]c4c(c23)CCCCC4)C1 (racemic) [Compound 5-5, 1-(1-acryloylpiperidin-3-yl)-2-fluoro-5,6,7,8,9,10-hexahydrocyclohepta[b]indole-4-carboxamide]
BTK in RAMOS B cells; Homo sapiens, Ramos
  IC50: 10 to 100 nM
BTK
  IC50: 10 to 100 nM

## C=CC(=O)N1CCc2c(cccc2-c2c(F)cc(C(N)=O)c3[nH]c4c(c23)CCCCC4)C1 (single isomer, unassigned) [Compound 5-2, 2-fluoro-1-[2-(prop-2-enoyl)-3,4-dihydro-1H-isoquinolin-5-yl]-5H,6H,7H,8H,9H,10H-cyclohepta[b]indole-4-carboxamide]
BTK in RAMOS B cells
  IC50: ≥ 100 nM
BTK
  IC50: ≥ 100 nM

## CC#CC(=O)N[C@H]1CCCN(c2c(F)cc(C(N)=O)c3[nH]c(C)c(C)c23)C1 [Branebrutinib, reference compound]
[1]; brain, read-out: Mean [brain]
  concentration at 1 h: 15 ng/g
[1]
  Kp at 1 h: 0.002
[1]; [2]
  concentration at 1 h: 6820 ng/mL

## C=CC(=O)N1CCC[C@@H](n2nc(-c3ccc(Oc4ccccc4)cc3)c3c(N)ncnc32)C1 [Ibrutinib, reference compound]
[1]; brain, read-out: Mean [brain]
  concentration at 1 h: 15 ng/g
[1]
  Kp at 1 h: 0.001
[1]; [2]
  concentration at 1 h: 306 ng/mL

## C=CC(=O)N1CCC=C(c2ccc(C(N)=O)c3[nH]c4c(c23)CC2(CC4)OCCO2)C1 [Compound 6-1, 4′-(1-prop-2-enoyl-3,6-dihydro-2H-pyridin-5-yl)spiro[1,3-dioxolane-2,6′-5,7,8,9-tetrahydrocarbazole]-1′-carboxamide]
BTK in RAMOS B cells; Homo sapiens, Ramos
  IC50: 10 to 100 nM
BTK
  IC50: 10 to 100 nM

## CC#CC(=O)N[C@H]1C[C@H](O)CN(c2c(F)cc(C(N)=O)c3[nH]c4c(c23)CCCCC4)C1 [Compound 4-3, 1-((3S,5S)-3-(but-2-ynamido)-5-hydroxypiperidin-1-yl)-2-fluoro-5,6,7,8,9,10-hexahydrocyclohepta[b]indole-4-carboxamide]
BTK in RAMOS B cells; Homo sapiens, Ramos
  IC50: 10 to 100 nM
BTK
  IC50: 10 to 100 nM

## C=CC(=O)N1CCc2c(cccc2-c2ccc(C(N)=O)c3[nH]c4c(c23)CC2(CC4)CC2)C1 [Compound 7-2, 5-(2-acryloyl-1,2,3,4-tetrahydroisoquinolin-5-yl)-1,2,4,9-tetrahydrospiro[carbazole-3,1′-cyclopropane]-8-carboxamide]
BTK in RAMOS B cells; Homo sapiens, Ramos
  IC50: ≥ 100 nM
[1]; brain, read-out: Mean [brain]
  concentration at 1 h: 43 ng/g
[1]
  Kp at 1 h: 0.39
[1]; [2]
  concentration at 1 h: 109 ng/mL
BTK
  IC50: 10 to 100 nM

## C=CC(=O)N1CCCC(c2cnc(C(N)=O)c3[nH]c4c(c23)CCCC4)C1 (stereo not drawn) [Compound 1-1, 4-(1-acryloylpiperidin-3-yl)-6,7,8,9-tetrahydro-5H-pyrido[3,4-b]indole-1-carboxamide]
BTK in RAMOS B cells; Homo sapiens, Ramos
  IC50: 10 to 100 nM
BTK
  IC50: 10 to 100 nM

## C=CC(=O)N1CCc2c(cccc2-c2c(F)cc(C(N)=O)c3[nH]c4c(c23)CCN(C)CC4)C1 [Compound 9-6, 10-(2-acryloyl-1,2,3,4-tetrahydroisoquinolin-5-yl)-9-fluoro-3-methyl-1,2,3,4,5,6-hexahydroazepino[4,5-b]indole-7-carboxamide]
BTK in RAMOS B cells; Homo sapiens, Ramos
  IC50: 10 to 100 nM
BTK
  IC50: 10 to 100 nM

## C=CC(=O)N1CCc2c(cccc2-c2c(F)cc(C(N)=O)c3[nH]c4c(c23)CS(=O)(=O)CC4)C1 (single isomer, unassigned) [Compound 9-4, 9-(2-acryloyl-1,2,3,4-tetrahydroisoquinolin-5-yl)-8-fluoro-1,3,4,5-tetrahydrothiopyrano[4,3-b]indole-6-carboxamide 2,2-dioxide]
BTK in RAMOS B cells
  IC50: ≥ 100 nM
BTK
  IC50: ≥ 100 nM

## C=CC(=O)N1CCc2c(cccc2-c2ccc(C(N)=O)c3[nH]c4c(c23)CC2(CCC2)CC4)C1 [Compound 7-4, 5-(2-acryloyl-1,2,3,4-tetrahydroisoquinolin-5-yl)-1,2,4,9-tetrahydrospiro[carbazole-3,1′-cyclobutane]-8-carboxamide]
BTK in RAMOS B cells; Homo sapiens, Ramos
  IC50: ≥ 100 nM
BTK
  IC50: ≥ 100 nM

## C=CC(=O)N1CCc2c(cccc2-c2ncc(C(N)=O)c3[nH]c4c(c23)CC2(CC4)CC2)C1 [Compound 7-30, 1′-(2-acryloyl-1,2,3,4-tetrahydroisoquinolin-5-yl)-5′,6′,7′,9′-tetrahydrospiro[cyclopropane-1,8′-pyrido[4,3-b]indole]-4′-carboxamide]
BTK in RAMOS B cells; Homo sapiens, Ramos
  IC50: 10 to 100 nM
BTK
  IC50: < 10 nM

## CC#CC(=O)N[C@H]1CCCN(c2c(F)cc(C(N)=O)c3[nH]c4c(c23)CCCCC4)C1 [Compound 4-1, (S)-1-(3-(but-2-ynamido)piperidin-1-yl)-2-fluoro-5,6,7,8,9,10-hexahydrocyclohepta[b]indole-4-carboxamide]
BTK in RAMOS B cells; Homo sapiens, Ramos
  IC50: 10 to 100 nM
BTK
  IC50: 10 to 100 nM

## C=CC(=O)N1CCC=C(c2ccc(C(N)=O)c3[nH]c4c(c23)CC2(CC4)CC2)C1 [Compound 7-1, 4-(1-prop-2-enoyl-3,6-dihydro-2H-pyridin-5-yl)spiro[5,7,8,9-tetrahydro-carbazole-6,1′-cyclopropane]-1-carboxamide]
BTK in RAMOS B cells; Homo sapiens, Ramos
  IC50: 10 to 100 nM
BTK
  IC50: 10 to 100 nM

## C=CC(=O)N1CCC=C(c2ccc(C(N)=O)c3[nH]c4c(c23)C[Si](C)(C)CC4)C1 [Compound 9-7, 9-(1-acryloyl-1,2,5,6-tetrahydropyridin-3-yl)-2,2-dimethyl-2,3,4,5-tetrahydro-1H-silino[4,3-b]indole-6-carboxamide]
BTK in RAMOS B cells; Homo sapiens, Ramos
  IC50: 10 to 100 nM
BTK
  IC50: < 10 nM
